Assay results reported in the NIST ThermoML archive (doi:10.1016/j.jct.2016.03.008).

Assay: mn = molality of the nth substance listed, in mol/kg
Conditions: 101 kPa, Liquid; for viscosity: Capillary tube (Ostwald / Ubbelohde) method; for mass density: Vibrating tube method

O=c1cc[nH]c(=O)[nH]1 [2,4(1H,3H)-pyrimidinedione] + O
Conditions | mass density, m1 = 0.005 [kg/m3] | mass density, m1 = 0.01 [kg/m3] | mass density, m1 = 0.015 [kg/m3] | mass density, m1 = 0.02 [kg/m3] | viscosity, m1 = 0.005 [mPa·s] | viscosity, m1 = 0.01 [mPa·s] | viscosity, m1 = 0.015 [mPa·s] | viscosity, m1 = 0.02 [mPa·s]
298.15 K | 997.23 | 997.44 | 997.63 | 997.82 | 0.8929 | 0.8953 | 0.8977 | 0.9002
308.15 K | 994.25 | 994.44 | 994.63 | 994.82 | 0.722 | 0.7232 | 0.7245 | 0.727
318.15 K | 990.42 | 990.61 | 990.79 | 990.98 | 0.598 | 0.6004 | 0.6017 | 0.6041

C[N+](C)(C)CC(=O)O.[Cl-] [betaine hydrochloride] + O
Conditions | mass density, 298.15 K [kg/m3] | mass density, 308.15 K [kg/m3] | mass density, 318.15 K [kg/m3] | viscosity, 298.15 K [mPa·s] | viscosity, 308.15 K [mPa·s] | viscosity, 318.15 K [mPa·s]
m1 = 0.006 | 997.26 | 994.25 | 990.47 | 0.8929 | 0.7208 | 0.598
m1 = 0.0134 | 997.52 | 994.51 | 990.73 | 0.8965 | 0.7244 | 0.6005
m1 = 0.0267 | 997.98 | 994.97 | 991.19 | 0.9009 | 0.7288 | 0.6054
m1 = 0.0401 | 998.43 | 995.42 | 991.65 | 0.9064 | 0.7331 | 0.6104
m1 = 0.0536 | 998.87 | 995.87 | 992.1 | 0.9124 | 0.7381 | 0.6153
m1 = 0.0671 | 999.31 | 996.31 | 992.54 | 0.9181 | 0.7427 | 0.62
